From patent US8318746B2, “Nitrogen-containing five-membered heterocyclic compound” (Takeda Pharmaceutical Company Limited, priority 2007, dated 2012)

Target: T1, GST-hLGK1 (GST added to the amino terminal of human liver GK) (Homo sapiens, UniProt P35557)
T1 construct: with a BamHI site added to immediately before the initiation codon; made in house; host or cells: Escherichia coli BL21 (Stratagene), plasmid pGEX6P-2/hLGK1
T1 sequence (P35557 1-464 isoform P35557-3): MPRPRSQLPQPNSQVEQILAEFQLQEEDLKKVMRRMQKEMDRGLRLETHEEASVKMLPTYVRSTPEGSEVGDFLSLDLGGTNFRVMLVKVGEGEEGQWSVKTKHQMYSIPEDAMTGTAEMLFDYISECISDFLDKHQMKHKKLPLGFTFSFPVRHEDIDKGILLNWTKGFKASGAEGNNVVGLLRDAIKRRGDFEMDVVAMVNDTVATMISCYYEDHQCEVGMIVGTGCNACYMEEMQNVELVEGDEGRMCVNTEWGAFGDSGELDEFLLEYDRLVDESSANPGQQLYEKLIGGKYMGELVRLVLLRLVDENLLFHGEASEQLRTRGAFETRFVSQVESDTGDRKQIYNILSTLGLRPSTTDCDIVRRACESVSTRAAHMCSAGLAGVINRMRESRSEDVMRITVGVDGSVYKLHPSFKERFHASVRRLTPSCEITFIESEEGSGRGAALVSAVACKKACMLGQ
Test: Measurement of GK activation value
Type: biochemical
Settings: test compound final concentration 10 μmol/L; reaction rate divided by that of control group (50% DMSO without test compound); Mant-ATP substrate, D-glucose, 37° C., 60 min
Description: To each well of a 384-well black plate (Nalge Nunc International K.K.) was added 5 μL of 50% dimethyl sulfoxide solution containing test compound diluted to 100 μmol/L. Then, GST-hLGK1 obtained in Reference Example 2A was diluted with measurement buffer (containing 50 mM HEPES (pH 7.4), 200 mM KCl, 5 mM MgCl2, 2.5 mM DTT and 50 μM 2′-(or-3′)—O—(N-methylanthraniloyl) adenosine 5′-triphosphate (Mant-ATP) (Jena BioScience)) to 6 μg/mL and 35 μL thereof was added to each well.
Each well was stood at 37° C. for 10 min, 25 mM D-glucose solution (10 μL) was added to start the reaction. The final concentration of the test compound was 10 μmol/L.
Each, well after the reaction was stood at 37° C. for 60 min, and the reaction was quenched by adding 25 μL of a quenching solution (containing 200 mM HEPES (pH 7.4), 20 mM MgCl2, 200 mM EDTA, 0.03% Triton-X 100, 0.3% Coating 3 reagent (Caliper Life Sciences, Inc.)).
2′-(or-3′)-O-(N-methylanthraniloyl)adenosine 5′-triphosphate (Mant-ATP, substrate) and Mant-ADP (reaction resultant product) were separated from each well after the reaction by a microchip type capillary electrophoresis apparatus 250 HTS (Caliper Life Sciences, Inc.). The reaction rate [(reaction resultant product peak height)/(reaction resultant product peak height+substrate peak height)×100(%)] was calculated from the ratio of the substrate peak height and reaction resultant product peak height obtained by fluorescence detection (excitation wavelength 355 nm, measurement wavelength 460 nm) and used as the index of GK activity.
As a control group, the reaction rate was calculated in the same manner as above except that “solution in 50% dimethyl sulfoxide (without test compound)” was used instead of “solution of test compound in 50% dimethyl sulfoxide”.
The reaction rate of the well (test compound addition group) added with the test compound was divided by the reaction rate of the control group and the obtained percentage was taken as the GK activation value (Emax) of the test compound.
`O=S(=O)(c1ccc(C(CC2CCOCC2)c2ccc(-c3ccc(Cn4cncn4)cn3)[nH]2)cc1)C1CC1` (centres unmarked) [Example 237, 2-(5-{1-[4-(cyclopropylsulfonyl)phenyl]-2-(tetrahydro-2H-pyran-4-yl)ethyl}-1H-pyrrol-2-yl)-5-(1H-1,2,4-triazol-1-ylmethyl)pyridine] gave an Emax at 10 µM of 152%. Molecule `CC(C)C(=O)c1[nH]c(C(CC2CCCC2)c2ccc(S(C)(=O)=O)cc2)nc1F` (centres unmarked) [Example 14, 1-(2-{2-cyclopentyl-1-[4-(methylsulfonyl)phenyl]ethyl}-4-fluoro-1H-imidazol-5-yl)-2-methylpropan-1-one] has an Emax at 10 µM of 185%. For `CS(=O)(=O)c1ccc(C(C[C@H]2CCC(=O)C2)c2ccc(-c3ccc(CO)cn3)[nH]2)cc1Cl` (some centres unmarked) [Example 197], the Emax at 10 µM was 142%. With `CS(=O)(=O)c1ccc(C(CC2CCCC2)c2ccc(-c3ccccn3)[nH]2)cc1` (centres unmarked) [Example 2, 2-(5-{2-cyclopentyl-1-[4-(methylsulfonyl)phenyl]ethyl}-1H-pyrrol-2-yl)pyridine] the Emax at 10 µM was 168%. `CS(=O)(=O)c1ccc(C(CC2CCCC2)c2ccc(-c3nccs3)[nH]2)cc1` (centres unmarked) [Example 1, 2-(5-{2-cyclopentyl-1-[4-(methylsulfonyl)phenyl]ethyl}-1H-pyrrol-2-yl)-1,3-thiazole] showed an Emax at 10 µM of 195%. `CCS(=O)(=O)CCNCc1cnc(-c2ccc(C(CC3CCOCC3)c3ccc(S(=O)(=O)C4CC4)cc3)[nH]2)s1.Cl` (centres unmarked) [Example 160, N-{[2-(5-{1-[4-(cyclopropylsulfonyl)phenyl]-2-(tetrahydro-2H-pyran-4-yl)ethyl}-1H-pyrrol-2-yl)-1,3-thiazol-5-yl]methyl}-2-(ethylsulfonyl)ethanamine hydrochloride] gave an Emax at 10 µM of 155%. `O=C1CC[C@H](CC(c2ccc(S(=O)(=O)C3CC3)cc2)c2nc(F)c(C(=O)C3CCC3)[nH]2)C1` (stereo partly drawn) [Example 29, (3R)-3-{2-[5-(cyclobutylcarbonyl)-4-fluoro-1H-imidazol-2-yl]-2-[4-(cyclopropylsulfonyl)phenyl]ethyl}cyclopentanone] gave an Emax at 10 µM of 218%. Work on `Cc1cc(C(CC2CCCC2)c2ccc(S(C)(=O)=O)cc2)[nH]c1C(N)=O` (centres unmarked) [Example 10, 5-{2-cyclopentyl-1-[4-(methylsulfonyl)phenyl]ethyl}-3-methyl-1H-pyrrole-2-carboxamide] yielded an Emax at 10 µM of 193%. Molecule `COCC(O)c1ccc(-c2ccc(C(CC3CCOCC3)c3ccc(S(=O)(=O)C4CC4)cc3)[nH]2)nc1` (centres unmarked) [Example 177, 1-[6-(5-[1-[4-(cyclopropylsulfonyl)phenyl]-2-(tetrahydro-2H-pyran-4-yl)ethyl]-1H-pyrrol-2-yl)pyridin-3-yl]-2-methoxyethanol] has an Emax at 10 µM of 171%. For `Cn1ccc(-c2ccc(C(CC3CCCC3)c3ccc(S(C)(=O)=O)cc3)[nH]2)n1` (centres unmarked) [Example 6, 3-(5-{2-cyclopentyl-1-[4-(methylsulfonyl)phenyl]ethyl}-1H-pyrrol-2-yl)-1-methyl-1H-pyrazole], the Emax at 10 µM was 198%. Molecule `Cc1cc(C(CC2CCCC2)c2ccc(S(C)(=O)=O)cc2)[nH]c1-c1nccs1` (centres unmarked) [Example 11, 2-(5-{2-cyclopentyl-1-[4-(methylsulfonyl)phenyl]ethyl}-3-methyl-1H-pyrrol-2-yl)-1,3-thiazole] has an Emax at 10 µM of 160%. `CS(=O)(=O)c1ccc(C(CC2CCOCC2)c2ccc(-c3ccc(C(O)CO)cn3)[nH]2)cc1Cl` (centres unmarked) [Example 91, 1-[6-(5-{1-[3-chloro-4-(methylsulfonyl)phenyl]-2-(tetrahydro-2H-pyran-4-yl)ethyl}-1H-pyrrol-2-yl)pyridin-3-yl]ethane-1,2-diol] showed an Emax at 10 µM of 142%. With `CCCC(=O)c1[nH]c(C(CC2CCCC2)c2ccc(S(C)(=O)=O)cc2)nc1F` (centres unmarked) [Example 17, 1-(2-{2-cyclopentyl-1-[4-(methylsulfonyl)phenyl]ethyl}-4-fluoro-1H-imidazol-5-yl)butan-1-one] the Emax at 10 µM was 188%. Work on `Cc1cc(C(CC2CCCC2)c2ccc(S(C)(=O)=O)cc2)[nH]c1C(=O)O` (centres unmarked) [Example 9, 5-{2-cyclopentyl-1-[4-(methylsulfonyl)phenyl]ethyl}-3-methyl-1H-pyrrole-2-carboxylic acid] yielded an Emax at 10 µM of 173%. Work on `CC(=O)N1CCN(Cc2ccc(-c3ccc(C(CC4CCOCC4)c4ccc(S(=O)(=O)C5CC5)cc4)[nH]3)nc2)CC1` (centres unmarked) [Example 62, 1-acetyl-4-{[6-(5-{1-[4-(cyclopropylsulfonyl)phenyl]-2-(tetrahydro-2H-pyran-4-yl)ethyl}-1H-pyrrol-2-yl)pyridin-3-yl]methyl}piperazine] yielded an Emax at 10 µM of 153%. For `CC(C)(O)C(O)c1ccc(-c2ccc(C(CC3CCOCC3)c3ccc(S(=O)(=O)C4CC4)cc3)[nH]2)nc1` (centres unmarked) [Example 127, 1-[6-(5-{1-[4-(cyclopropylsulfonyl)phenyl]-2-(tetrahydro-2H-pyran-4-yl)ethyl}-1H-pyrrol-2-yl)pyridin-3-yl]-2-methylpropane-1,2-diol], the Emax at 10 µM was 139%. In the case of `CCOC(=O)c1[nH]c(C(CC2CCCC2)c2ccc(S(C)(=O)=O)cc2)cc1C` (centres unmarked) [Example 8, Ethyl 5-{2-cyclopentyl-1-[4-(methylsulfonyl)phenyl]ethyl}-3-methyl-1H-pyrrole-2-carboxylate], the Emax at 10 µM is reported as 225%. With `CC(O)c1cnc(-c2ccc(C(CC3CCOCC3)c3ccc(S(=O)(=O)C4CC4)cc3)[nH]2)s1` (centres unmarked) [Example 151, 1-[2-(5-[1-[4-(cyclopropylsulfonyl)phenyl]-2-(tetrahydro-2H-pyran-4-yl)ethyl]-1H-pyrrol-2-yl)-1,3-thiazol-5-yl]ethanol] the Emax at 10 µM was 167%. For `Cn1ccnc1-c1ccc(C(CC2CCCC2)c2ccc(S(C)(=O)=O)cc2)[nH]1` (centres unmarked) [Example 4, 2-(5-{2-cyclopentyl-1-[4-(methylsulfonyl)phenyl]ethyl}-1H-pyrrol-2-yl)-1-methyl-1H-imidazole], the Emax at 10 µM was 227%. `CS(=O)(=O)c1ccc(C(CC2CCCC2)c2ncc(C(=O)C3CCC3)[nH]2)cc1` (centres unmarked) [Example 21, Cyclobutyl(2-{2-cyclopentyl-1-[4-(methylsulfonyl)phenyl]ethyl}-1H-imidazol-5-yl)methanone] showed an Emax at 10 µM of 157%. Work on `O=S(=O)(c1ccc(C(CC2CCOCC2)c2ccc(-c3ccc(C(CO)CO)cn3)[nH]2)cc1)C1CC1` (centres unmarked) [Example 53, 2-[6-(5-{1-[4-(cyclopropylsulfonyl)phenyl]-2-(tetrahydro-2H-pyran-4-yl)ethyl}-1H-pyrrol-2-yl)pyridin-3-yl]propane-1,3-diol] yielded an Emax at 10 µM of 148%.

Tested on: not given
Test: not given
Settings: not given
For `O=S(=O)(c1ccc(C(CC2CCOCC2)c2ccc(-c3ccc(Cn4cncn4)cn3)[nH]2)cc1)C1CC1` (centres unmarked) [Example 237, 2-(5-{1-[4-(cyclopropylsulfonyl)phenyl]-2-(tetrahydro-2H-pyran-4-yl)ethyl}-1H-pyrrol-2-yl)-5-(1H-1,2,4-triazol-1-ylmethyl)pyridine], the melting point was 152 to 153 °C. `CCS(=O)(=O)CCNCc1cnc(-c2ccc(C(CC3CCOCC3)c3ccc(S(=O)(=O)C4CC4)cc3)[nH]2)s1.Cl` (centres unmarked) [Example 160, N-{[2-(5-{1-[4-(cyclopropylsulfonyl)phenyl]-2-(tetrahydro-2H-pyran-4-yl)ethyl}-1H-pyrrol-2-yl)-1,3-thiazol-5-yl]methyl}-2-(ethylsulfonyl)ethanamine hydrochloride] showed a melting point of 127 to 129 °C.
